# Activity calls are given as the source filed them. No cut-off for these calls is given here.
# Experiments:
# [1] = Toxicity in Balb/C nu/nu mouse xenografted with human HeLa cells assessed as change in lung histology at 2.5 umol/kg, iv with photo-irradiation at 30 J/cm2 after 1 hr of compound administration measured after 24 days by H and E staining based analysis; type: organism-based; details: in vivo, 576 h, dose 2.5 µmol/kg, time 24 day
# [2] = Drug distribution in Balb/C nu/nu mouse xenografted with human HeLa cells at 2.5 umol/kg, iv measured for 24 hr by IVIS imaging analysis; type: ADME, organism-based; details: in vivo, dose 2.5 µmol/kg
# HeLa [3] = assay: Induction of apoptosis in human HeLa cells assessed as increase in percentage of apoptosis/necrosis at 100 nM incubated for 3 hrs with photo-irradiation at 54 J/cm2 by Annexin V-FITC/PI staining based flow cytometry relative to control; type: functional
# HeLa [4] = assay: Induction of apoptosis in human HeLa cells assessed as late apoptotic cells at 12.5 nM incubated for 3 hrs with photo-irradiation at 54 J/cm2 by Annexin V-FITC/PI staining based flow cytometry relative to control; type: functional
# [5] = Drug distribution in Balb/C nu/nu mouse xenografted with human HeLa cells at 2.5 umol/kg, iv measured for 1 hr by IVIS imaging analysis; type: ADME, organism-based; details: in vivo, dose 2.5 µmol/kg
# HeLa [6] = assay: Disruption of lysosomes in human HeLa cells at 100 nM incubated for 3 hrs by AO staining based confocal scanning microscopy; type: functional, cell-based
# [7] = Toxicity in Balb/C nu/nu mouse xenografted with human HeLa cells assessed as drug tolerance at 2.5 umol/kg, iv with photo-irradiation at 30 J/cm2 after 1 hr of compound administration measured for 24 days; type: organism-based; details: in vivo, 576 h, dose 2.5 µmol/kg, time 24 day
# [8] = Drug localization in lysosome of human HeLa cells at 5 uM incubated for 30 mins by Lyso-tracker Green DND-26 dye based confocal scanning microscopic analysis; type: ADME, subcellular; details: 0.5 h
# HeLa [9] = assay: Induction of ROS production in human HeLa cells upto 200 nM preincubated for 2 hrs followed by H2DCFDA probe exposure for 30 mins and subsequent removal of probe by confocal scanning microscopic analysis; type: functional, cell-based; details: time 2.5 hrs
# HeLa [10] = assay: Induction of apoptosis in human HeLa cells assessed as viable cells at 100 nM incubated for 3 hrs with photo-irradiation at 54 J/cm2 by Annexin V-FITC/PI staining based flow cytometry relative to control; type: functional; details: light or radiation study, read-out: Activity
# [11] = Cytotoxicity against human HeLa cells assessed as inhibition of cell viability under dark condition incubated for 27 hrs by CCK8 assay; type: toxicity, cell-based
# HeLa [12] = assay: Induction of apoptosis in human HeLa cells assessed as viable cells at 25 nM incubated for 3 hrs with photo-irradiation at 54 J/cm2 by Annexin V-FITC/PI staining based flow cytometry relative to control; type: functional; details: light or radiation study, read-out: Activity
# HeLa [13] = assay: Induction of apoptosis in human HeLa cells assessed as late apoptotic cells at 100 nM incubated for 3 hrs by Annexin V-FITC/PI staining based flow cytometry relative to control; type: toxicity, cell-based; details: 0.1 µM
# HeLa [14] = assay: Induction of apoptosis in human HeLa cells assessed as early apoptotic cells at 12.5 nM incubated for 3 hrs with photo-irradiation at 54 J/cm2 by Annexin V-FITC/PI staining based flow cytometry relative to control; type: functional
# [15] = Drug localization in mitochondria of human HeLa cells at 5 uM incubated for 30 mins by MitoTracker Green FM dye based confocal scanning microscopic analysis; type: ADME; details: 0.5 h
# [16] = Drug distribution in lungs of Balb/C nu/nu mouse xenografted with human HeLa cells at 2.5 umol/kg, iv measured for 1 hr by IVIS imaging analysis; type: ADME, organism-based, Lung; details: in vivo, dose 2.5 µmol/kg
# HeLa [17] = assay: Induction of apoptosis in human HeLa cells assessed as increase in percentage of apoptosis/necrosis at 12.5 nM incubated for 3 hrs with photo-irradiation at 54 J/cm2 by Annexin V-FITC/PI staining based flow cytometry relative to control; type: functional
# [18] = Drug distribution in spleen of Balb/C nu/nu mouse xenografted with human HeLa cells at 2.5 umol/kg, iv measured for 24 hr by IVIS imaging analysis; type: ADME, organism-based; details: in vivo, dose 2.5 µmol/kg
# HeLa [19] = assay: Induction of apoptosis in human HeLa cells assessed as late apoptotic cells at 100 nM incubated for 3 hrs with photo-irradiation at 54 J/cm2 by Annexin V-FITC/PI staining based flow cytometry relative to control; type: functional
# HeLa [20] = assay: Induction of apoptosis in human HeLa cells assessed as early apoptotic cells at 100 nM incubated for 3 hrs by Annexin V-FITC/PI staining based flow cytometry relative to control; type: toxicity, cell-based; details: 0.1 µM
# HeLa [21] = assay: Induction of apoptosis in human HeLa cells assessed as early apoptotic cells at 25 nM incubated for 3 hrs with photo-irradiation at 54 J/cm2 by Annexin V-FITC/PI staining based flow cytometry relative to control; type: functional
# [22] = Cytotoxicity against human HepG2 cells assessed as inhibition of cell viability under dark condition incubated for 27 hrs by CCK8 assay; type: toxicity, cell-based
# [23] = Toxicity in Balb/C nu/nu mouse xenografted with human HeLa cells assessed as change in heart histology at 2.5 umol/kg, iv with photo-irradiation at 30 J/cm2 after 1 hr of compound administration measured after 24 days by H and E staining based analysis; type: organism-based; details: in vivo, 576 h, dose 2.5 µmol/kg, time 24 day
# HeLa [24] = assay: Induction of apoptosis in human HeLa cells assessed as early apoptotic cells at 100 nM incubated for 3 hrs with photo-irradiation at 54 J/cm2 by Annexin V-FITC/PI staining based flow cytometry relative to control; type: functional
# [25] = Drug distribution in tumor of Balb/C nu/nu mouse xenografted with human HeLa cells at 2.5 umol/kg, iv measured for 24 hr by IVIS imaging analysis; type: ADME, organism-based, Neoplasm; details: in vivo, dose 2.5 µmol/kg
# [26] = Drug distribution in lungs of Balb/C nu/nu mouse xenografted with human HeLa cells at 2.5 umol/kg, iv measured for 24 hr by IVIS imaging analysis; type: ADME, organism-based, Lung; details: in vivo, dose 2.5 µmol/kg
# [27] = Drug distribution in kidneys of Balb/C nu/nu mouse xenografted with human HeLa cells at 2.5 umol/kg, iv measured for 1 hr by IVIS imaging analysis; type: ADME, organism-based, Kidney; details: in vivo, dose 2.5 µmol/kg
# HeLa [28] = assay: Induction of apoptosis in human HeLa cells assessed as viable cells at 50 nM incubated for 3 hrs with photo-irradiation at 54 J/cm2 by Annexin V-FITC/PI staining based flow cytometry relative to control; type: functional; details: light or radiation study, read-out: Activity
# HeLa [29] = assay: Induction of apoptosis in human HeLa cells assessed as late apoptotic cells at 50 nM incubated for 3 hrs with photo-irradiation at 54 J/cm2 by Annexin V-FITC/PI staining based flow cytometry relative to control; type: functional
# [30] = Drug uptake in human HeLa cells at 5 uM incubated for 3 hrs by confocal scanning microscopy; type: ADME, cell-based
# [31] = Drug distribution in liver of Balb/C nu/nu mouse xenografted with human HeLa cells at 2.5 umol/kg, iv measured for 1 hr by IVIS imaging analysis; type: ADME, organism-based; details: in vivo, dose 2.5 µmol/kg
# [32] = Toxicity in Balb/C nu/nu mouse xenografted with human HeLa cells assessed as change in spleen histology at 2.5 umol/kg, iv with photo-irradiation at 30 J/cm2 after 1 hr of compound administration measured after 24 days by H and E staining based analysis; type: organism-based; details: in vivo, 576 h, dose 2.5 µmol/kg, time 24 day
# HeLa [33] = assay: Induction of apoptosis in human HeLa cells assessed as necrotic cells at 100 nM incubated for 3 hrs with photo-irradiation at 54 J/cm2 by Annexin V-FITC/PI staining based flow cytometry relative to control; type: functional
compound,measurement,setting,value
COc1ccc2c(c1)CCc1c(-c3ccccc3)c3n(c1-2)[B-](F)(F)[N+]1=C(c2ccc(OCC(=O)NCCCN4CCOCC4)cc2)C(I)=C(c2ccccc2)C1=N3,Activity,[1],Non-Toxic
same,Drug uptake,[2],Not Active
same,Activity,HeLa [3],64.6%
same,Activity,HeLa [4],5.57%
same,Drug uptake,[5],Active
same,Activity,HeLa [6],inactive
same,Activity,[7],Non-Toxic
same,Drug uptake,[8],Active
same,Activity,HeLa [9],inactive
same,viability at 0.1 µM,HeLa [10],9.73%
same,IC50 at 27 h,[11],> 50 µM
same,viability at 0.025 µM,HeLa [12],47%
same,Activity,HeLa [13],5.79%
same,Activity,HeLa [14],5.28%
same,Drug uptake,[15],Not Active
same,Drug uptake,[16],Active
same,Activity,HeLa [17],10.9%
same,Drug uptake,[18],Not Active
same,Activity,HeLa [19],16.6%
same,Activity,HeLa [20],1.52%
same,Activity,HeLa [21],36.45%
same,IC50 at 27 h,[22],> 50 µM
same,Activity,[23],Non-Toxic
same,Activity,HeLa [24],73.1%
same,Drug uptake,[25],Not Active
same,Drug uptake,[26],Not Active
same,Drug uptake,[27],Active
same,viability at 0.05 µM,HeLa [28],25.4%
same,Activity,HeLa [29],13.58%
same,Drug uptake,[30],Active
same,Drug uptake,[31],Active
same,Activity,[32],Non-Toxic
same,Activity,HeLa [33],0.57%
